# Assay results taken from PubChem BioAssay (NCI).
# Values joined by “and” are separate entries in the source; they are usually repeats but may differ in a detail not shown here. Identical values can stand only once.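 Briefly, cells in 96-well plates were exposed to five compound concentrations for 48 h, and endpoints were estimated by linear interpolation. The concentration for 50% growth inhibition is given as GI50. TGI: total growth inhibition.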
# Columns and labels:
# Assay in all cases: inhibition of tumour cell growth, NCI panel, 48 h
# HOP-92 NSCLC = test system: HOP-92 NSCLC
# BT-549 breast = test system: BT-549 breast
# MCF7 breast = test system: MCF7 breast
# OVCAR-8 ovarian = test system: OVCAR-8 ovarian
# TK-10 renal = test system: TK-10 renal
# UO-31 renal = test system: UO-31 renal
# SF-539 CNS = test system: SF-539 CNS
# SNB-19 CNS = test system: SNB-19 CNS
# NCI-H226 lung = test system: NCI-H226 lung
# HL-60(TB) leukemia = test system: HL-60(TB) leukemia
# HS 578T breast = test system: HS 578T breast
# A549 NSCLC = test system: A549 NSCLC
# EKVX NSCLC = test system: EKVX NSCLC
# HOP-62 NSCLC = test system: HOP-62 NSCLC
# SF-268 CNS = test system: SF-268 CNS
# COLO 205 colon = test system: COLO 205 colon
# SK-MEL-5 melanoma = test system: SK-MEL-5 melanoma
# SNB-75 CNS = test system: SNB-75 CNS
# DU-145 prostate = test system: DU-145 prostate
# NCI-H460 lung = test system: NCI-H460 lung
# MOLT-4 leukemia = test system: MOLT-4 leukemia
# CCRF-CEM leukemia = test system: CCRF-CEM leukemia
# SF-295 CNS = test system: SF-295 CNS
# NCI-H522 lung = test system: NCI-H522 lung
# SK-MEL-2 melanoma = test system: SK-MEL-2 melanoma
# T-47D breast = test system: T-47D breast
# RXF 393 renal = test system: RXF 393 renal
# OVCAR-3 ovarian = test system: OVCAR-3 ovarian
# U251 CNS = test system: U251 CNS
# SK-MEL-28 melanoma = test system: SK-MEL-28 melanoma
# KM12 colon = test system: KM12 colon
# IGROV1 ovarian = test system: IGROV1 ovarian
# MALME-3M melanoma = test system: MALME-3M melanoma
# HCC-2998 colon = test system: HCC-2998 colon
# LOX IMVI melanoma = test system: LOX IMVI melanoma
# HT29 colon = test system: HT29 colon
# OVCAR-5 ovarian = test system: OVCAR-5 ovarian
# UACC-257 melanoma = test system: UACC-257 melanoma
# CAKI-1 renal = test system: CAKI-1 renal
# RPMI-8226 leukemia = test system: RPMI-8226 leukemia
# OVCAR-4 ovarian = test system: OVCAR-4 ovarian
# A498 renal = test system: A498 renal
# SW-620 colon = test system: SW-620 colon
# HCT-15 colon = test system: HCT-15 colon
# NCI/ADR-RES ovarian = test system: NCI/ADR-RES ovarian
# ACHN renal = test system: ACHN renal
# 786-0 renal = test system: 786-0 renal
# M14 melanoma = test system: M14 melanoma
# UACC-62 melanoma = test system: UACC-62 melanoma
# MDA-MB-435 = test system: MDA-MB-435
# SN12C renal = test system: SN12C renal
# K-562 leukemia = test system: K-562 leukemia
# MDA-MB-231 breast = test system: MDA-MB-231 breast
# SR leukemia = test system: SR leukemia
# SK-OV-3 ovarian = test system: SK-OV-3 ovarian
# HCT-116 colon = test system: HCT-116 colon
# PC-3 prostate = test system: PC-3 prostate
# NCI-H23 lung = test system: NCI-H23 lung
structure (smiles),measurement,setting,value
C#C[C@]1(O)CC[C@H]2[C@@H]3CC=C4c5sc(-c6ccc(C)cc6)nc5CC[C@]4(C)[C@H]3CC[C@@]21C,GI50,HOP-92 NSCLC,36.5 µM
same,TGI,HOP-92 NSCLC,> 100 µM
same,GI50,BT-549 breast,25.9 µM
same,TGI,BT-549 breast,> 100 µM
same,GI50,MCF7 breast,46.8 µM
same,TGI,MCF7 breast,> 100 µM
same,GI50,OVCAR-8 ovarian,> 100 µM
same,TGI,OVCAR-8 ovarian,> 100 µM
same,GI50,TK-10 renal,> 100 µM
same,TGI,TK-10 renal,> 100 µM
same,GI50,UO-31 renal,28.9 µM
same,TGI,UO-31 renal,> 100 µM
same,GI50,SF-539 CNS,2.31 µM
same,TGI,SF-539 CNS,> 100 µM
same,GI50,SNB-19 CNS,> 100 µM
same,TGI,SNB-19 CNS,> 100 µM
same,GI50,NCI-H226 lung,> 100 µM
same,TGI,NCI-H226 lung,> 100 µM
same,GI50,HL-60(TB) leukemia,35.6 µM
same,TGI,HL-60(TB) leukemia,> 100 µM
same,GI50,HS 578T breast,4.17 µM
same,TGI,HS 578T breast,> 100 µM
same,GI50,A549 NSCLC,95.5 µM
same,TGI,A549 NSCLC,> 100 µM
same,GI50,EKVX NSCLC,> 100 µM
same,TGI,EKVX NSCLC,> 100 µM
same,GI50,HOP-62 NSCLC,> 100 µM
same,TGI,HOP-62 NSCLC,> 100 µM
same,GI50,SF-268 CNS,> 100 µM
same,TGI,SF-268 CNS,> 100 µM
same,GI50,COLO 205 colon,> 100 µM
same,TGI,COLO 205 colon,> 100 µM
same,GI50,SK-MEL-5 melanoma,> 100 µM
same,TGI,SK-MEL-5 melanoma,> 100 µM
same,GI50,SNB-75 CNS,6.29 µM
same,TGI,SNB-75 CNS,> 100 µM
same,GI50,DU-145 prostate,> 100 µM
same,TGI,DU-145 prostate,> 100 µM
same,GI50,NCI-H460 lung,> 100 µM
same,TGI,NCI-H460 lung,> 100 µM
same,GI50,MOLT-4 leukemia,45.2 µM
same,TGI,MOLT-4 leukemia,> 100 µM
same,GI50,CCRF-CEM leukemia,> 100 µM
same,TGI,CCRF-CEM leukemia,> 100 µM
same,GI50,SF-295 CNS,2.69 µM
same,TGI,SF-295 CNS,> 100 µM
same,GI50,NCI-H522 lung,> 100 µM
same,TGI,NCI-H522 lung,> 100 µM
same,GI50,SK-MEL-2 melanoma,> 100 µM
same,TGI,SK-MEL-2 melanoma,> 100 µM
same,GI50,T-47D breast,93.7 µM
same,TGI,T-47D breast,> 100 µM
same,GI50,RXF 393 renal,4.29 µM
same,TGI,RXF 393 renal,> 100 µM
same,GI50,OVCAR-3 ovarian,> 100 µM
same,TGI,OVCAR-3 ovarian,> 100 µM
same,GI50,U251 CNS,61 µM
same,TGI,U251 CNS,> 100 µM
same,GI50,SK-MEL-28 melanoma,> 100 µM
same,TGI,SK-MEL-28 melanoma,> 100 µM
same,GI50,KM12 colon,> 100 µM
same,TGI,KM12 colon,> 100 µM
same,GI50,IGROV1 ovarian,> 100 µM
same,TGI,IGROV1 ovarian,> 100 µM
same,GI50,MALME-3M melanoma,> 100 µM
same,TGI,MALME-3M melanoma,> 100 µM
same,GI50,HCC-2998 colon,> 100 µM
same,TGI,HCC-2998 colon,> 100 µM
same,GI50,LOX IMVI melanoma,> 100 µM
same,TGI,LOX IMVI melanoma,> 100 µM
same,GI50,HT29 colon,24.5 µM
same,TGI,HT29 colon,> 100 µM
same,GI50,OVCAR-5 ovarian,> 100 µM
same,TGI,OVCAR-5 ovarian,> 100 µM
same,GI50,UACC-257 melanoma,> 100 µM
same,TGI,UACC-257 melanoma,> 100 µM
same,GI50,CAKI-1 renal,60.9 µM
same,TGI,CAKI-1 renal,> 100 µM
same,GI50,RPMI-8226 leukemia,1.91 µM
same,TGI,RPMI-8226 leukemia,> 100 µM
same,GI50,OVCAR-4 ovarian,> 100 µM
same,TGI,OVCAR-4 ovarian,> 100 µM
same,GI50,A498 renal,> 100 µM
same,TGI,A498 renal,> 100 µM
same,GI50,SW-620 colon,> 100 µM
same,TGI,SW-620 colon,> 100 µM
same,GI50,HCT-15 colon,12.8 µM
same,TGI,HCT-15 colon,> 100 µM
same,GI50,NCI/ADR-RES ovarian,> 100 µM
same,TGI,NCI/ADR-RES ovarian,> 100 µM
same,GI50,ACHN renal,> 100 µM
same,TGI,ACHN renal,> 100 µM
same,GI50,786-0 renal,3.41 µM
same,TGI,786-0 renal,61.6 µM
same,GI50,M14 melanoma,30.6 µM
same,TGI,M14 melanoma,> 100 µM
same,GI50,UACC-62 melanoma,> 100 µM
same,TGI,UACC-62 melanoma,> 100 µM
same,GI50,MDA-MB-435,> 100 µM
same,TGI,MDA-MB-435,> 100 µM
same,GI50,SN12C renal,> 100 µM
same,TGI,SN12C renal,> 100 µM
same,GI50,K-562 leukemia,9.35 µM
same,TGI,K-562 leukemia,> 100 µM
same,GI50,MDA-MB-231 breast,> 100 µM
same,TGI,MDA-MB-231 breast,> 100 µM
same,GI50,SR leukemia,> 100 µM
same,TGI,SR leukemia,> 100 µM
same,GI50,SK-OV-3 ovarian,> 100 µM
same,TGI,SK-OV-3 ovarian,> 100 µM
same,GI50,HCT-116 colon,18.3 µM
same,TGI,HCT-116 colon,> 100 µM
same,GI50,PC-3 prostate,26.2 µM
same,TGI,PC-3 prostate,> 100 µM
same,GI50,NCI-H23 lung,> 100 µM
same,TGI,NCI-H23 lung,> 100 µM
COc1cc(C)c(-c2ccc(OC)c(=O)cc2C)c(OC)c1OC,GI50,HOP-92 NSCLC,3.53 µM and 22.4 µM
same,TGI,HOP-92 NSCLC,> 100 µM
same,TGI,MCF7 breast,> 100 µM
same,TGI,OVCAR-8 ovarian,> 100 µM
same,GI50,TK-10 renal,66.3 µM and > 100 µM
same,TGI,TK-10 renal,> 100 µM
same,TGI,UO-31 renal,> 100 µM
same,TGI,SF-539 CNS,> 100 µM
same,TGI,SNB-19 CNS,> 100 µM
same,TGI,NCI-H226 lung,> 100 µM
same,GI50,HS 578T breast,> 100 µM
same,TGI,HS 578T breast,> 100 µM
same,TGI,A549 NSCLC,> 100 µM
same,TGI,EKVX NSCLC,> 100 µM
same,TGI,HOP-62 NSCLC,> 100 µM
same,TGI,SF-268 CNS,> 100 µM
same,TGI,SK-MEL-5 melanoma,38.3 µM and > 100 µM
same,GI50,SNB-75 CNS,> 100 µM
same,TGI,SNB-75 CNS,> 100 µM
same,TGI,DU-145 prostate,> 100 µM
same,TGI,NCI-H460 lung,> 100 µM
same,TGI,MOLT-4 leukemia,> 100 µM
same,TGI,CCRF-CEM leukemia,> 100 µM
same,TGI,SF-295 CNS,> 100 µM
same,TGI,T-47D breast,> 100 µM
same,TGI,RXF 393 renal,> 100 µM
same,TGI,U251 CNS,> 100 µM
same,GI50,SK-MEL-28 melanoma,> 100 µM
same,TGI,SK-MEL-28 melanoma,> 100 µM
same,TGI,KM12 colon,> 100 µM
same,TGI,IGROV1 ovarian,> 100 µM
same,GI50,MALME-3M melanoma,> 100 µM
same,TGI,MALME-3M melanoma,> 100 µM
same,TGI,HCC-2998 colon,> 100 µM
same,TGI,LOX IMVI melanoma,> 100 µM
same,TGI,OVCAR-5 ovarian,> 100 µM
same,TGI,UACC-257 melanoma,> 100 µM
same,TGI,CAKI-1 renal,> 100 µM
same,TGI,RPMI-8226 leukemia,> 100 µM
same,GI50,OVCAR-4 ovarian,44.2 µM and > 100 µM
same,TGI,OVCAR-4 ovarian,> 100 µM
same,TGI,SW-620 colon,> 100 µM
same,TGI,HCT-15 colon,> 100 µM
same,GI50,NCI/ADR-RES ovarian,> 100 µM
same,TGI,NCI/ADR-RES ovarian,> 100 µM
same,TGI,ACHN renal,> 100 µM
same,TGI,786-0 renal,> 100 µM
same,TGI,M14 melanoma,> 100 µM
same,TGI,UACC-62 melanoma,> 100 µM
same,TGI,SN12C renal,> 100 µM
same,TGI,K-562 leukemia,> 100 µM
same,TGI,MDA-MB-231 breast,> 100 µM
same,TGI,SR leukemia,> 100 µM
same,TGI,SK-OV-3 ovarian,> 100 µM
same,TGI,HCT-116 colon,> 100 µM
same,TGI,PC-3 prostate,> 100 µM
same,TGI,NCI-H23 lung,> 100 µM
